Laboratory results taken from patent US11274092B2, “Potassium channel inhibitors” (ACESION PHARMA ApS, priority 2016, dated 2022).

Target: T1, human SK3 channel (hKCa2.3) (Homo sapiens, UniProt Q9UGI6)
T1 construct: expressed in transfected cells
Assay: Automated whole cell patch-clamp (QPatch 16 HT), inhibition of SK3 current
Type: cell-based
Conditions: HEK-293 cells stably expressing hKCa2.3; symmetrical K+ solutions, free calcium 400 nM; effects normalized to N-methyl bicuculline
Experimental: Automated whole cell patch-clamp recordings were performed using a QPatch 16 HT system and single-hole Qplates (Biolin Scientific, Sophion, Denmark) on HEK-293 cells stably expressing the human SK3 channel (hKCa2.3). Cells were cultured and prepared for experiments using normal cell culturing procedures. A total of 4-5 million cells were used per experiment. The Qpatch automatically generates giga sealing, whole-cell formation, compound application and recording of current. hKCa2.3 currents were recorded in symmetrical K^+ solutions, with an intracellular solution consisting of in mM: KCl 108; KOH/EGTA (ethylene glycol-bis(2-aminoethylether)-N,N,N′,N′-tetraacetic acid) 31.25/10; CaCl2) 8.1; MgCl2 1.2; HEPES (2-[4-(2-hydroxyethyl)piperazin-1-yl]ethanesulfonic acid) 10; KOH 15, pH adjusted to pH=7.2 with HCl. The free calcium concentration was calculated to 400 nM. The extracellular solution consisted of in mM: KCl 150; CaCl2) 0.1; MgCl2 3; HEPES 10; Glucose 10, pH=7.4 with KOH. The cells were held at 0 mV and hKCa2.3 currents were elicited by a linear voltage ramp from […] (200 ms in duration) applied every 5th second. The compound application protocol consisted of 12 recording periods lasting from 50-200 s: 1) Baseline recordings in extracellular solution; 2) Application of the positive control N-methyl bicuculline (100 μM), which is characterized by full efficacy, fast on- and off-rate; 3-4) Wash-out; 5-9) Increasing concentrations of test compound to establish an IC50 value; 10-11) Wash-out; 12) positive control with compound NS8593 (N-[(1R)-1,2,3,4-tetrahydro-1-naphthalenyl]-1H-benzimidazol-2-amine) (1 μM). Data were sampled at 10 kHz, 4th order Bessel filter, cut-off frequency 3 kHz. Currents were compensated for run-down. Potency was quantified as the concentration needed to inhibit half of the SK channel activity and reported as an IC50 value. All effects of compounds of the present invention as tested were normalized to the observed inhibitory effect of N-methyl bicuculline.

Row | Structure (SMILES) | IC50 [µM]
1 | O=C(CC(Nc1nc2ccccc2[nH]1)c1cccc(SC(F)(F)F)c1)NCc1nc2ccccc2o1 (stereo not drawn) [Example 89, 3-[(1H-1,3-benzodiazol-2-yl)amino]-N-(1,3-benzoxazol-2-ylmethyl)-3-{3-[(trifluoromethyl)sulfanyl]phenyl}propanamide] | < 10
2 | CN(CC#N)C(=O)CC(Nc1nc2ccccc2[nH]1)c1cccc(C(F)(F)F)c1 (stereo not drawn) [Example 56, 3-[(1H-1,3-benzodiazol-2-yl)amino]-N-(cyanomethyl)-N-methyl-3-[3-(trifluoromethyl)phenyl]propanamide] | < 10
3 | O=C(CC(Nc1nc2ccccc2[nH]1)c1cccc(C(F)(F)F)c1)NCc1nc2ccccc2o1 (stereo not drawn) [Example 72, 3-[(1H-1,3-benzodiazol-2-yl)amino]-N-(1,3-benzoxazol-2-ylmethyl)-3-[3-(trifluoromethyl)phenyl]propanamide] | < 10
4 | CCOC(=O)CN(CC)C(=O)CC(Nc1nc2ccccc2[nH]1)c1cccc(C(F)(F)F)c1 (stereo not drawn) [Example 48, Ethyl 2-{3-[(1H-1,3-benzodiazol-2-yl)amino]-N-ethyl-3-[3-(trifluoromethyl)phenyl]propanamido}acetate] | < 10
5 | CN(C)C1CN(C(=O)C(Nc2nc3ccccc3[nH]2)c2cccc(C(F)(F)F)c2)C1 (stereo not drawn) [Example 28, 2-[(1H-1,3-benzodiazol-2-yl)amino]-1-[3-(dimethylamino)azetidin-1-yl]-2-[3-(trifluoromethyl)phenyl]ethan-1-one] | 10 to 100
6 | O=C(C(Nc1nc2ccccc2[nH]1)c1cccc(C(F)(F)F)c1)N1CCCC1 (stereo not drawn) [Example 29, 2-[(1H-1,3-benzodiazol-2-yl)amino]-1-(pyrrolidin-1-yl)-2-[3-(trifluoromethyl)phenyl]ethan-1-one] | < 10
7 | CC(C)S(=O)(=O)N1CCN(C(=O)C(Nc2nc3ccccc3[nH]2)c2cccc(C(F)(F)F)c2)CC1 (stereo not drawn) [Example 33, 2-[(1H-1,3-benzodiazol-2-yl)amino]-1-[4-(propane-2-sulfonyl)piperazin-1-yl]-2-[3-(trifluoromethyl)phenyl]ethan-1-one] | 10 to 100
8 | CN(CC(N)=O)C(=O)CC(Nc1nc2ccccc2[nH]1)c1cccc(C(F)(F)F)c1 (stereo not drawn) [Example 60, 3-[(1H-1,3-benzodiazol-2-yl)amino]-N-(carbamoylmethyl)-N-methyl-3-[3-(trifluoromethyl)phenyl]propanamide] | 10 to 100
9 | O=C(C(Nc1nc2ccccc2[nH]1)c1cccc(C(F)(F)F)c1)N1CCOCC1 (stereo not drawn) [Example 32, 2-[(1H-1,3-benzodiazol-2-yl)amino]-1-(morpholin-4-yl)-2-[3-(trifluoromethyl)phenyl]ethan-1-one] | < 10
10 | COCCNC(=O)CC(Nc1nc2ccccc2[nH]1)c1cccc(C(F)(F)F)c1 (single isomer, unassigned; (-)) [Example 42a, (−)3-[(1H-1,3-benzodiazol-2-yl)amino]-N-(2-methoxyethyl)-3-[3-(trifluoromethyl)phenyl]propanamide] | < 10
11 | O=C(CC(Nc1nc2ccccc2[nH]1)c1cccc(C(F)(F)F)c1)NCC1COC1 (stereo not drawn) [Example 7, 3-[(1H-1,3-benzodiazol-2-yl)amino]-N-(oxetan-3-ylmethyl)-3-[3-(trifluoromethyl)phenyl]propanamide] | 10 to 100
12 | Cc1cc(C(CC(=O)NCC#N)Nc2nc3ccccc3[nH]2)cc(C)c1F (stereo not drawn) [Example 86, 3-[(1H-1,3-benzodiazol-2-yl)amino]-N-(cyanomethyl)-3-(4-fluoro-3,5-dimethylphenyl)propanamide] | < 10
13 | O=C(CC(Nc1nc2ccccc2[nH]1)c1cccc(C(F)(F)F)c1)N1CCC[C@@H](O)C1 (stereo partly drawn) [Example 13, 3-[(1H-1,3-benzodiazol-2-yl)amino]-1-[(3R)-3-hydroxypiperidin-1-yl]-3-[3-(trifluoromethyl)phenyl]propan-1-one] | 10 to 100
14 | Cc1noc(C)c1CCNC(=O)CC(Nc1nc2ccccc2[nH]1)c1cccc(C(F)(F)F)c1 (stereo not drawn) [Example 74, 3-[(1H-1,3-benzodiazol-2-yl)amino]-N-[2-(dimethyl-1,2-oxazol-4-yl)ethyl]-3-[3-(trifluoromethyl)phenyl]propanamide] | < 10
15 | COCCNC(=O)CC(Nc1nc2cc(F)c(F)cc2[nH]1)c1cccc(C(F)(F)F)c1 (stereo not drawn) [Example 95, 3-[(5,6-difluoro-1H-1,3-benzodiazol-2-yl)amino]-N-(2-methoxyethyl)-3-[3-(trifluoromethyl)phenyl]propanamide] | 10 to 100
16 | CCS(=O)(=O)NCCNC(=O)CC(Nc1nc2ccccc2[nH]1)c1cccc(C(F)(F)F)c1 (stereo not drawn) [Example 3, 3-[(1H-1,3-benzodiazol-2-yl)amino]-N-(2-ethanesulfonamidoethyl)-3-[3-(trifluoromethyl)phenyl]propanamide] | 10 to 100
17 | NCCNC(=O)C(Nc1nc2ccccc2[nH]1)c1cccc(C(F)(F)F)c1 (stereo not drawn) [Example 24, N-(2-aminoethyl)-2-[(1H-1,3-benzodiazol-2-yl)amino]-2-[3-(trifluoromethyl)phenyl]acetamide] | 10 to 100
18 | CN1CCN(C(=O)C(Nc2nc3ccccc3[nH]2)c2cccc(C(F)(F)F)c2)CC1 (stereo not drawn) [Example 27, 2-[(1H-1,3-benzodiazol-2-yl)amino]-1-(4-methylpiperazin-1-yl)-2-[3-(trifluoromethyl)phenyl]ethan-1-one] | < 10
19 | O=C(CC(Nc1nc2ccccc2[nH]1)c1cccc(C(F)(F)F)c1)NC1COC1 (stereo not drawn) [Example 10, 3-[(1H-1,3-benzodiazol-2-yl)amino]-N-(oxetan-3-yl)-3-[3-(trifluoromethyl)phenyl]propanamide] | < 10
20 | O=C(CC(Nc1nc2ccccc2[nH]1)c1cccc(OC(F)(F)F)c1)NCc1nc2ccccc2o1 (stereo not drawn) [Example 90, 3-[(1H-1,3-benzodiazol-2-yl)amino]-N-(1,3-benzoxazol-2-ylmethyl)-3-[3-(trifluoromethoxy)phenyl]propanamide] | < 10
21 | COCCNC(=O)CC(Nc1nc2ccccc2[nH]1)c1cccc(OC(F)(F)F)c1 (stereo not drawn) [Example 84, 3-[(1H-1,3-benzodiazol-2-yl)amino]-N-(2-methoxyethyl)-3-[3-(trifluoromethoxy)phenyl]propanamide] | < 10
22 | O=C(CC(Nc1nc2ccccc2[nH]1)c1cccc(C(F)(F)F)c1)N1CC(O)C1 (stereo not drawn) [Example 6, 3-[(1H-1,3-benzodiazol-2-yl)amino]-1-(3-hydroxyazetidin-1-yl)-3-[3-(trifluoromethyl)phenyl]propan-1-one] | < 10
23 | CCOC(=O)NCc1ccc2[nH]c(NC(CC(=O)N(CC)CCO)c3cccc(C(F)(F)F)c3)nc2c1 (stereo not drawn) [Example 66, Ethyl N-{[2-({2-[ethyl(2-hydroxyethyl)carbamoyl]-1-[3-(trifluoromethyl)phenyl]ethyl}amino)-1H-1,3-benzodiazol-5-yl]methyl}carbamate] | 10 to 100
24 | O=C(C(Nc1nc2ccccc2[nH]1)c1cccc(C(F)(F)F)c1)N1CCCCC1 (stereo not drawn) [Example 31, 2-[(1H-1,3-benzodiazol-2-yl)amino]-1-(piperidin-1-yl)-2-[3-(trifluoromethyl)phenyl]ethan-1-one] | < 10
25 | CCNC(=O)OCCNC(=O)CC(Nc1nc2ccccc2[nH]1)c1cccc(C(F)(F)F)c1 (stereo not drawn) [Example 63, 2-{3-[(1H-1,3-benzodiazol-2-yl)amino]-3-[3-(trifluoromethyl)phenyl]propanamido}ethyl N-ethylcarbamate] | < 10
26 | CCN(CCO)C(=O)CC(Nc1nc2c(CO)cccc2[nH]1)c1cccc(C(F)(F)F)c1 (stereo not drawn) [Example 49, N-ethyl-N-(2-hydroxyethyl)-3-{[4-(hydroxymethyl)-1H-1,3-benzodiazol-2-yl]amino}-3-[3-(trifluoromethyl)phenyl]propanamide] | 10 to 100
27 | COC[C@H](NC(=O)CC(Nc1nc2ccccc2[nH]1)c1cccc(C(F)(F)F)c1)c1ccccc1 (single isomer, unassigned) [Example 69a] | < 10
28 | CCN(CCO)C(=O)CC(Nc1nc2ccccc2[nH]1)c1ccc(F)c(C)c1 (single isomer, unassigned; (-)) [Example 39a, (−)3-[(1H-1,3-benzodiazol-2-yl)amino]-N-ethyl-3-(4-fluoro-3-methylphenyl)-N-(2-hydroxyethyl)propanamide] | < 10
29 | N#CCNC(=O)CC(Nc1nc2ccccc2[nH]1)c1cccc(C(F)(F)F)c1 (stereo not drawn) [Example 21, 3-[(1H-1,3-benzodiazol-2-yl)amino]-N-(cyanomethyl)-3-[3-(trifluoromethyl)phenyl]propanamide] | < 10
30 | O=C(CC(Nc1nc2ccccc2[nH]1)c1cccc(C(F)(F)F)c1)NCCOC(F)(F)F (stereo not drawn) [Example 67, 3-[(1H-1,3-benzodiazol-2-yl)amino]-N-[2-(trifluoromethoxy)ethyl]-3-[3-(trifluoromethyl)phenyl]propanamide] | < 10
